The values below come from PubChem BioAssay (NCI).

Test systems include HOP-62 NSCLC; HT29 colon; OVCAR-5 ovarian; MDA-MB-231 breast; DU-145 prostate; SR leukemia; OVCAR-3 ovarian; COLO 205 colon; SNB-75 CNS; K-562 leukemia.
Common to all, as to experiment: inhibition of tumour cell growth, NCI panel, 48 h

Several values for one entry are separate records, joined by “and”; a condition that tells them apart may be missing. Identical values can stand only once.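 These data come from cells grown in 96-well plates and exposed to compound for 48 hours at five concentrations. GI50: concentration for 50% inhibition of growth. The concentration for full growth arrest is given as TGI.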

Regarding `Cc1cc(Cl)ccc1NC(=O)NC(C)(C)COC(=O)Nc1cccc(Cl)c1`, the GI50 with HOP-62 NSCLC was 14.1 µM; in the assay with HT29 colon, 7.42 µM; in the assay with OVCAR-5 ovarian it was 8.1 µM; with MDA-MB-231 breast, 5.45 µM; in the assay on DU-145 prostate, 11.2 µM; in the assay with SR leukemia, 8.31 µM. The GI50 was 3.78 µM in the assay on OVCAR-3 ovarian, 7.18 µM in the assay with COLO 205 colon, 11.3 µM in the assay on SNB-75 CNS and 5.09 µM in the assay on K-562 leukemia. Moreover, the TGI with HOP-62 NSCLC was 50.5 µM; in the assay with HT29 colon, 39.4 µM; with OVCAR-5 ovarian, more than 100 µM; in the assay with MDA-MB-231 breast, 26 µM; in the assay with DU-145 prostate, more than 100 µM; in the assay on SR leukemia it was more than 100 µM. The TGI is 12.7 µM in the assay on OVCAR-3 ovarian, 20.2 µM in the assay with COLO 205 colon, 47.1 µM with SNB-75 CNS and more than 100 µM in the assay with K-562 leukemia.

As for `Cc1nn2c(/C=C3\C(=O)Nc4ccccc43)c(C)nc2s1`, the GI50 in the assay on HOP-62 NSCLC is 15.7 µM; with HT29 colon it was 5.32 µM; in the assay on OVCAR-5 ovarian, 50.7 µM; in the assay with MDA-MB-231 breast, more than 100 µM; with DU-145 prostate, 75.8 µM; in the assay with SR leukemia it was 4.86 µM. Also, the GI50 in the assay with OVCAR-3 ovarian was 35.6 µM; with COLO 205 colon, 5.33 µM; with SNB-75 CNS, 53.7 µM; in the assay with K-562 leukemia it was 6.71 µM. Moreover, the TGI in the assay with HOP-62 NSCLC, in the assay on HT29 colon, with OVCAR-5 ovarian, in the assay with MDA-MB-231 breast, in the assay with DU-145 prostate and with SR leukemia was more than 100 µM throughout. Further, the TGI is more than 100 µM with OVCAR-3 ovarian, 63.4 µM in the assay with COLO 205 colon, more than 100 µM in the assay with SNB-75 CNS and more than 100 µM in the assay on K-562 leukemia.

Regarding `CC1(C)N=C(N)N=C(N)N1c1ccc(OCCCCNC(=O)c2ccc(S(=O)(=O)F)cc2)c(Cl)c1`, the GI50 in the assay on HOP-62 NSCLC is 68.3 µM; in the assay with HT29 colon, 4.19 µM; in the assay on OVCAR-5 ovarian, more than 100 µM; in the assay with MDA-MB-231 breast, 66.2 µM; in the assay on DU-145 prostate, 8.16 µM; with SR leukemia, 4.95 µM. Further, the GI50 in the assay with OVCAR-3 ovarian is 50.4 µM; in the assay on COLO 205 colon it was 68.4 µM; in the assay on SNB-75 CNS it was 16.5 µM; in the assay on K-562 leukemia it was 0.562 µM. Moreover, the TGI in the assay on HOP-62 NSCLC, in the assay with HT29 colon, in the assay with OVCAR-5 ovarian, with MDA-MB-231 breast, in the assay with DU-145 prostate and in the assay on SR leukemia was more than 100 µM throughout. Further, the TGI with OVCAR-3 ovarian, with COLO 205 colon, with SNB-75 CNS and in the assay on K-562 leukemia was more than 100 µM in each case.

Take `O=C(Nc1ccccc1C(=O)Nc1nccs1)c1ccccc1`: the TGI in the assay with HOP-62 NSCLC, in the assay on HT29 colon, with OVCAR-5 ovarian, in the assay with MDA-MB-231 breast, in the assay on DU-145 prostate and in the assay with SR leukemia was more than 100 µM each time. The TGI in the assay on OVCAR-3 ovarian is 36.6 µM; in the assay with COLO 205 colon, more than 100 µM; in the assay with SNB-75 CNS it was more than 100 µM; in the assay with K-562 leukemia, more than 100 µM.

Consider `C=C1C[C@@H]2[C@H](CC[C@]3(C)C(=O)CC[C@@H]23)[C@@]2(C)C=CC(=O)C=C12`, for which the GI50 with HOP-62 NSCLC was 35.2 µM; in the assay on HT29 colon, 37.1 µM; in the assay with OVCAR-5 ovarian, 37.3 µM; in the assay on MDA-MB-231 breast, 35 µM; in the assay with DU-145 prostate it was more than 65.8 µM; in the assay with SR leukemia, more than 54.4 µM. In addition, the GI50 in the assay with OVCAR-3 ovarian is 26.5 µM; with COLO 205 colon, 20.3 µM; in the assay with SNB-75 CNS, 30 µM; in the assay with K-562 leukemia, more than 59.8 µM. Moreover, the TGI was more than 83.1 µM in the assay on HOP-62 NSCLC; more than 100 µM in the assay with HT29 colon; more than 100 µM with OVCAR-5 ovarian; more than 100 µM in the assay on MDA-MB-231 breast; more than 100 µM in the assay with DU-145 prostate; more than 79.9 µM in the assay on SR leukemia. For the same molecule, the TGI in the assay on OVCAR-3 ovarian was more than 66.3 µM; in the assay with COLO 205 colon, 41 µM; in the assay with SNB-75 CNS it was more than 100 µM; in the assay on K-562 leukemia, more than 100 µM.

Turning to `O=[N+]([O-])c1ccc(NC(=S)N/N=C(\c2ccccc2)c2ccccn2)cc1`, the GI50 in the assay with HOP-62 NSCLC was 1.3 µM; in the assay on HT29 colon, 1.56 µM; in the assay on OVCAR-5 ovarian, 0.0772 µM; in the assay on MDA-MB-231 breast, 0.0286 µM; with SR leukemia it was 0.0286 µM; with COLO 205 colon, 0.0423 µM. Moreover, in the assay with K-562 leukemia, the GI50 was 0.00498 µM. Further, the TGI is 2.98 µM and 1.62 µM in the assay on HOP-62 NSCLC; 3.12 µM and 2.78 µM with HT29 colon; 2.58 µM and 4.58 µM in the assay on OVCAR-5 ovarian; 2.06 µM and 1.86 µM in the assay on MDA-MB-231 breast; 2.84 µM and 4.03 µM in the assay with DU-145 prostate; 2.98 µM and > 27.4 µM with SR leukemia. Further, the TGI is 1.36 µM and 2.76 µM in the assay on OVCAR-3 ovarian; 2.52 µM and 3.88 µM in the assay with COLO 205 colon; 3.76 µM in the assay on SNB-75 CNS; 2.41 µM and 3.82 µM in the assay with K-562 leukemia.

For `CN(C)c1ccc(N=C(C#N)c2nc(N)nc(N3CCN(c4ccccc4)CC3)n2)cc1`, the GI50 was more than 28.6 µM in the assay on HOP-62 NSCLC; 21.2 µM with HT29 colon; more than 50 µM in the assay on OVCAR-5 ovarian; 10.7 µM in the assay with MDA-MB-231 breast; 11.6 µM in the assay with DU-145 prostate; more than 50 µM in the assay with SR leukemia. In addition, the GI50 in the assay on OVCAR-3 ovarian was 27.5 µM; with COLO 205 colon it was more than 42.4 µM; in the assay on SNB-75 CNS it was 6.9 µM; with K-562 leukemia, more than 50 µM. Moreover, the TGI in the assay on HOP-62 NSCLC was more than 50 µM; with HT29 colon it was more than 50 µM; in the assay with OVCAR-5 ovarian, more than 50 µM; with MDA-MB-231 breast it was 31.3 µM; in the assay on DU-145 prostate, more than 28.1 µM; in the assay with SR leukemia it was more than 50 µM. In addition, the TGI with OVCAR-3 ovarian was more than 50 µM; in the assay with COLO 205 colon, more than 50 µM; in the assay on SNB-75 CNS it was 25.6 µM; with K-562 leukemia, more than 50 µM.

As to `CCCNc1cccc(-n2ncc3c(N/N=C/c4ccncc4)ncnc32)c1`, the GI50 with HOP-62 NSCLC is 4.72 µM; in the assay on HT29 colon it was 14.9 µM; in the assay with OVCAR-5 ovarian, more than 25 µM; in the assay with MDA-MB-231 breast it was more than 25 µM; with DU-145 prostate, more than 25 µM; in the assay on SR leukemia, 1.18 µM. In addition, the GI50 in the assay with OVCAR-3 ovarian is 2.17 µM; in the assay with COLO 205 colon, more than 25 µM; in the assay with SNB-75 CNS it was 0.934 µM; in the assay with K-562 leukemia, 1.12 µM. Further, the TGI in the assay on HOP-62 NSCLC, in the assay on HT29 colon, in the assay on OVCAR-5 ovarian, in the assay with MDA-MB-231 breast, in the assay with DU-145 prostate and with SR leukemia was more than 25 µM each time. In addition, the TGI in the assay with OVCAR-3 ovarian is more than 25 µM; in the assay with COLO 205 colon, more than 25 µM; in the assay with SNB-75 CNS, more than 19.4 µM; with K-562 leukemia it was more than 25 µM.
